Laboratory results from PMC6147803 (Acta Pharmaceutica Sinica. B, 2018).

Target: T1, PTP1B (Homo sapiens, UniProt P18031)
T1 sequence (P18031 1-435): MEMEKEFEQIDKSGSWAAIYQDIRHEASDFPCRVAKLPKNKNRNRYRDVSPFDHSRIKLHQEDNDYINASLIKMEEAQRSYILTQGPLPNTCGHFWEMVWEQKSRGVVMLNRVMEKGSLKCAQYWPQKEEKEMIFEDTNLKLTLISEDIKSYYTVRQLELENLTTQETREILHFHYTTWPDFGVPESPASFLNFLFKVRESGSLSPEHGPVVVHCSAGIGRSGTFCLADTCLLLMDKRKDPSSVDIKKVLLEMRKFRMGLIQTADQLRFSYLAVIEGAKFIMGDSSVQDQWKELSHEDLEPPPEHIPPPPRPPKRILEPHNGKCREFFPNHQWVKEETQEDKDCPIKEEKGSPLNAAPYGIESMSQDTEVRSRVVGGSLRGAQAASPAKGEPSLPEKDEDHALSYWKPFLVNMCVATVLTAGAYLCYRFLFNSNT
Assay: p-NPP dephosphorylation end-point assay at […] nm, […] compound
Type: biochemical
Settings: read-out: % inhibition at 10 μmol/L

## COc1c(O)ccc(/C=C/C(=O)O)c1SC[C@@H](O)C(=O)O [compound 1, (S)-2-(2-carboxyl-2-hydroxyethylthio)-ferulic acid]
  inhibition at 10 µM: 19.6%
